Here are results for three compounds from ChEMBL document CHEMBL1151282, “Flavonoids and benzene derivatives from the flowers and fruit of Tetrapanax papyriferus” (J Nat Prod, 2005).

As a reminder, the LC50 is the concentration that kills 50% of the test population. A lower LC50 goes with greater toxicity.

A short description of the data set: Toxicity in brine shrimp after 24 hrs. In kind it is organism-based. Particulars: artemia, in vivo.
As to `C[C@@H]1O[C@@H](Oc2cc(O)c3c(=O)c(O)c(-c4ccc(O)cc4)oc3c2)[C@H](OC(=O)/C=C/c2ccc(O)cc2)[C@H](OC(=O)/C=C/c2ccc(O)cc2)[C@H]1O`, the 50% lethal concentration (LC50) at 24 h is 400 µM. For `C[C@@H]1O[C@@H](Oc2cc(O)c3c(=O)c(O)c(-c4ccc(O)cc4)oc3c2)[C@H](OC(=O)/C=C/c2ccc(O)cc2)[C@H](O)[C@H]1O`, the median lethal concentration (LC50) at 24 h came out at 570 µM. As for `CC(=O)Oc1ccc(-c2oc3cc(OC(C)=O)cc(O)c3c(=O)c2OC(C)=O)cc1`, the figure is 2210 µM.
